# Experimental data published in patent publication US20120232049A1, “PYRIDINE OR PYRIMIDINE DERIVATIVE HAVING EXCELLENT CELL GROWTH INHIBITION EFFECT AND EXCELLENT ANTI-TUMOR EFFECT ON CELL STRAIN HAVING AMPLIFICATION OF HGFR GENE” (Eisai R&D Management Co., Ltd., priority 2007, published 2012).
# Legend:
# [1] = system: MKN-74 (human gastric cancer cells); experiment: Proliferation inhibitory effect against human cancer cells, MKN-74; assay type: cell-based; conditions: MKN-74, 72 h, c-met non-amplified cell, 3 days, Cell Counting Kit-8
# Description: (§1) Six kinds of human cancer cells are suspended in RPMI1640 medium (purchased from Sigma) containing 10% FBS, respectively. The cell suspensions (MKN-45: 1.5×10^4 cells/ml, SNU-5: 5×10^4 cells/ml, EBC-1: 3×10^4 cells/ml, MKN-74: 2.5×10^4 cells/ml, SNU-1: 2.5×10^4 cells/ml, A549: 1.5×10^4 cells/ml) were added to a cell culture 96-well plate (purchased from NUNC, product number: 167008) at 0.1 ml/well, and cultured overnight in a 5% CO2 incubator (37° C.). After the culture, 0.1 ml of a test substance diluted with RPMI1640 medium containing 10% FBS and the culture was continued for 3 days in a 5% CO2 incubator (37° C.). After the culture, 10 μl of Cell Counting Kit-8 (purchased from DOJINDO, product number: 343-07623) was added to each well and the incubation was performed for 0.5 to 3 hours in a 5% CO2 incubator (37° C.). After the incubation, absorbance of each well was measured by a plate reader MTP-500 (Corona Electric Co., Ltd.) with measurement wavelength 450 nm and reference wavelength 660 nm.
# [2] = system: SNU-5 (human gastric cancer cells); experiment: Proliferation inhibitory effect against human cancer cells, SNU-5; assay type: cell-based; conditions: SNU-5, 72 h, c-met amplified cell, 3 days, Cell Counting Kit-8
# Description: as §1
# [3] = system: A549 (human lung cancer cells); experiment: Proliferation inhibitory effect against human cancer cells, A549; assay type: cell-based; conditions: A549, 72 h, c-met non-amplified cell, 3 days, Cell Counting Kit-8
# Description: as §1
# [4] = system: SNU-1 (human gastric cancer cells); experiment: Proliferation inhibitory effect against human cancer cells, SNU-1; assay type: cell-based; conditions: SNU1, 72 h, c-met non-amplified cell, 3 days, Cell Counting Kit-8
# Description: as §1
# [5] = system: EBC-1 (human lung cancer cells); experiment: Proliferation inhibitory effect against human cancer cells, EBC-1; assay type: cell-based; conditions: EBC-1, 72 h, c-met amplified cell, 3 days, Cell Counting Kit-8
# Description: as §1
# [6] = system: MKN-45 (human gastric cancer cells); experiment: Proliferation inhibitory effect against human cancer cells, MKN-45; assay type: cell-based; conditions: MKN-45, 72 h, c-met amplified cell, 3 days, Cell Counting Kit-8
# Description: as §1
# [7] = system: Human gastric cancer cells (MKN-45); experiment: Tumor proliferation inhibitory effect against human cancer cells (MKN-45), subcutaneous transplant; assay type: in vivo, BALB/c(nu/nu) mice; conditions: orally twice a day, fifth day
# Description: Human gastric cancer cells (MKN-45) were suspended in HBSS (purchased from GIBCO BRL). The cell suspension (5×10^7 cells/ml; 0.1 ml) was transplanted to the subcutaneous parts of the right flank of 7-week female BALB/c(nu/nu) mice. When the tumor volume reached 100-200 mm^3, mice were grouped so that the average of the tumor volume was equable in each group, and 0.5% methylcellulose in hydrochloric acid-glucose solution (0.1N hydrochloric acid:5% glucose solution=1:9) or a test substance suspended in dimethylsulfoxide-Tween-glucose solution (dimethylsulfoxide:Tween:5% glucose solution (containing equimolar hydrochloric acid of the test substance)=7:13:80) was orally administered to mice daily twice a day. The tumor volume was measured on the fifth day from the administration of the test substance. The long and short diameters of the tumor were measured with a caliper and the tumor volume was calculated according to the equation: 1/2×long diameter×short diameter×short diameter. The experiment was conducted in a control group (vehicle administered group) of 10 animals as well as in the test substance administered group of 5 animals. Tumor proliferation rate (%) was defined as the ration of the tumor volume of the test substance administered group to the tumor volume of control group and shown in table 9
# [8] = 100 mg/kg weight/administration
# [9] = 12.5 mg/kg weight/administration
Compound,IC50 [1] [nM],IC50 [2] [nM],IC50 [3] [nM],IC50 [4] [nM],IC50 [5] [nM],IC50 [6] [nM],tumor proliferation rate(%) ([7]; 30 mg/kg weight/administration),"tumor proliferation rate(%) [7, 8] [%]","tumor proliferation rate(%) [7, 9] [%]",tumor proliferation rate(%) ([7]; 1 mg/kg weight/administration),tumor proliferation rate(%) ([7]; 3 mg/kg weight/administration),tumor proliferation rate(%) ([7]; 10 mg/kg weight/administration)
"CN1CCN(C2CCN(C(=O)Nc3cc(Oc4ccc(NC(=O)C5(C(=O)Nc6ccc(F)cc6)CC5)c(F)c4)ccn3)CC2)CC1 [Example 15, N-(2-Fluoro-4-{[2-({[4-(4-methylpiperazin-1-yl)piperidin-1-yl]carbonyl}amino)pyridin-4-yl]oxy}phenyl)-N-(4-fluorophenyl)cyclopropane-1,1-dicarboxamide]",4300,6.2,2600,4200,17,15,29.7,19.9,,,,
"O=C(Nc1cc(Oc2ccc(NC(=O)C3(C(=O)Nc4ccc(F)cc4)CC3)c(F)c2)ccn1)N1CCC1 [Example 61, N-[4-({2-[(Azetidin-1-ylcarbonyl)amino]pyridin-4-yl}oxy)-2-fluorophenyl]-N′-(4-fluorophenyl)cyclopropane-1,1-dicarboxamide]",4200,38,> 10000,> 10000,65,60,,,35.8,,,
"O=C(Nc1cc(Oc2cc(F)c(NC(=O)C3(C(=O)Nc4ccc(F)cc4)CC3)cc2F)ccn1)N1CC(O)C1 [Example 91, N-{2,5-Difluoro-4-[(2-{([3-hydroxyazetidin-1-yl)carbonyl]amino}pyridin-4-yl)oxy]phenyl}-N′-(4-fluorophenyl)cyclopropane-1,1-dicarboxamide]",3000,6,1900,2000,6.4,6,19.6,16.0,22.9,73.0,55.5,27.4
"CN1CCN(C2CCN(C(=O)Nc3cc(Oc4cc(F)c(NC(=O)C5(C(=O)Nc6ccc(F)cc6)CC5)cc4F)ccn3)CC2)CC1 [Example 92, N-(2,5-Difluoro-4-{[2-({[4-(4-methylpiperazin-1-yl)piperidin-1-yl]carbonyl}amino)pyridin-4-yl]oxy}phenyl)-N′-(4-fluorophenyl)cyclopropane-1,1-dicarboxamide]",2000,1.7,2900,2300,3.8,3.8,,,27.9,,,
"CN1CCC(N(C)C(=O)Nc2cc(Oc3cc(F)c(NC(=O)C4(C(=O)Nc5ccc(F)cc5)CC4)cc3F)ccn2)CC1 [Example 94, N-(2,5-Difluoro-4-{[2-({[methyl(1-methylpiperidin-4-yl)amino]carbonyl}amino)pyridin-4-yl]oxy}phenyl)-N′-(4-fluorophenyl)cyclopropane-1,1-dicarboxamide]",1900,1.7,1800,1600,2.4,2.3,,,,,,
"O=C(Nc1cc(Oc2cc(F)c(NC(=O)C3(C(=O)Nc4ccc(F)cc4)CC3)cc2F)ccn1)N1CC(CO)C1 [Example 96, N-(2,5-Difluoro-4-{[2-({[3-(hydroxymethyl)azetidin-1-yl]carbonyl}amino)pyridin-4-yl]oxy}phenyl)-N′-(4-fluorophenyl)cyclopropane-1,1-dicarboxamide]",3300,4.9,2000,3600,4.5,4.7,,,,,,
